What all share (format): in vitro ADME
Data set [1] relates to waxy cuticles of whole wheat leaves. Nature of the data set: Franz cell leaf penetration of epoxiconazole (Example 7). To be noted: 24 h, 50 ppm. The method, then:
(§1) This ratio may be expressed based on:
Several donor solutions were prepared to assess penetration of an azole fungicide, namely epoxiconazole, across waxy cuticles of whole wheat leaves. Epoxiconazole TGAI was provided in each donor solution at a rate of 50 ppm. Epoxiconazole is available from MilliporeSigma, St. Louis, MO, USA, and Shanghai Terppon Chemical Co., Ltd., Shanghai, China as a technical grade active ingredient. Certain donor solutions comprised 500 ppm 3-Nonenoic acid.
(§2) The permeation period was 24 hours. […] The powderized leaf was mixed with acetone as a solvent.

Data set [2] has the same test system. Nature of the data set: Franz cell leaf penetration of 3-Nonenoic acid (Example 5). Conditions: penetration ratio of 3-Nonenoic acid (500 ppm), epoxiconazole TGAI 50 ppm and adjuvant 1,000 ppm where included, 24 hours. The procedure:
as §1
(§3) Several donor solutions were prepared to assess penetration of 3-Nonenoic acid across waxy cuticles of whole wheat leaves. Each donor solution comprised 500 ppm 3-Nonenoic acid. Certain donor solutions included an azole fungicide, namely epoxiconazole technical grade active ingredient (TGAI) fungicide, each at a rate of 50 ppm. Epoxiconazole is commercially available from MilliporeSigma, St. Louis, MO, USA, as a technical grade active ingredient. […] In this example, the adjuvants tested were non-ionic surfactants comprising C11 linear alcohol ethoxylates (available from Stepan Company of Northfield, IL as Biosoft® N1-5, Biosoft® N1-7, and Biosoft® N1-9).
as §2

The test system is the same in data set [3]. The experiment in a line: Franz cell leaf penetration of 3-Octenoic acid (Example 3). Conditions: penetration ratio of 3-Octenoic acid (500 ppm), epoxiconazole TGAI 50 ppm and adjuvant 1,000 ppm where included, 24 hours. The procedure:
as §1
as §3, with “3-Octenoic” for “3-Nonenoic”, “N1-5” for “N1-5, Biosoft® N1-7,”, “Biosoft®) N1-7).” for “Biosoft® N1-9).”
as §2

The test system is the same in data set [4]. The experiment in a line: Franz cell leaf penetration of 5-Hexenoic acid (Example 4). To be noted: penetration ratio of 5-Hexenoic acid (1,000 ppm), pyraclostrobin 236 ppm (Headline EC) and adjuvant 1,000 ppm where included, 24 hours. The procedure: as §1
Several donor solutions were prepared to assess penetration of 5-Hexenoic acid across waxy cuticles of whole wheat leaves. Each donor solution comprised 1,000 ppm 5-Hexenoic acid (except where otherwise noted). Certain donor solutions included a strobilurin fungicide, namely pyraclostrobin. Such donor solutions comprised Headline® EC, a commercially available fungicide from BASF Corporation comprising pyraclostrobin. Such donor solutions comprised 236 ppm pyraclostrobin. […] In this example, the adjuvants tested were non-ionic surfactants comprising C11 linear alcohol ethoxylates (available from Stepan Company of Northfield, IL as Biosoft® N1-5, Biosoft® N1-7, and Biosoft® N1-9).
as §2

In data set [5] the test system is waxy cuticles of whole soybean leaves. The experiment in a line: Franz cell leaf penetration of azoxystrobin, Mero (Example 14). Conditions: penetration ratio of azoxystrobin (343.5 ppm, Quadris), trans-2-Hexenoic acid 1,500 ppm and Mero 31.3 ppm where included, 24 hours. The procedure:
as §1
Several donor solutions were prepared to assess penetration of a strobilurin fungicide, namely azoxystrobin, across waxy cuticles of whole soybean leaves. Each donor solution comprised Quadris®, a commercially available fungicide from Syngenta Crop Protection comprising azoxystrobin. Such donor solutions comprised 343.5 ppm azoxystrobin. Certain donor solutions included 1,500 ppm trans-2-Hexenoic acid.
(§4) The permeation period was 24 hours.

The subject of data set [6] is waxy cuticles of whole wheat leaves. Nature of the data set: Franz cell leaf penetration of pyraclostrobin, Headline EC (Example 6). Conditions: penetration ratio of pyraclostrobin (236 ppm, Headline EC), 5-Hexenoic acid 1,000 ppm and adjuvant 1,000 ppm where included, 24 hours. The method, then: as §1
(§5) Several donor solutions were prepared to assess penetration of a strobilurin fungicide active ingredient, namely pyraclostrobin, across waxy cuticles of whole wheat leaves. Each donor solution comprised Headline® EC, a commercially available fungicide from BASF Corporation comprising pyraclostrobin. Such donor solutions comprised 236 ppm pyraclostrobin. Pyraclostrobin is also commercially available in end-user product form from BASF Corporation as Headline® SC fungicide. Certain donor solutions included 1,000 ppm 5-Hexenoic acid. […] In this example, the adjuvants tested were non-ionic surfactants comprising C11 linear alcohol ethoxylates (available from Stepan Company of Northfield, IL as Biosoft® N1-5, Biosoft® N1-7, and Biosoft® N1-9).
as §2

Data set [7] shares this test system. Nature of the data set: Franz cell leaf penetration of pyraclostrobin, Headline SC (Example 8). Conditions: penetration ratio of pyraclostrobin (236 ppm, Headline SC), 5-Hexenoic acid 1,000 ppm and adjuvant 1,000 ppm where included, 24 hours. The procedure: as §1
as §5, with “SC,” for “EC,”, “pyraclostrobin.” for “pyraclostrobin. Pyraclostrobin is also commercially available in end-user product form from BASF Corporation as Headline® SC fungicide.”, “included an aliphatic acid, namely 5-Hexenoic acid. Such donor solutions comprised” for “included”
as §2

The test system of data set [8] is waxy cuticles of whole soybean leaves. Nature of the data set: Franz cell leaf penetration of trans-2-Hexenoic acid, Biosoft adjuvants (Example 2). Conditions: penetration ratio of trans-2-Hexenoic acid (1,500 ppm), azoxystrobin 343.5 ppm (Quadris) and adjuvant 1,000 ppm where included, 24 hours.
Description: as §1
Each donor solution comprised 1,500 ppm trans-2-Hexenoic acid. Certain donor solutions included a strobilurin fungicide, namely azoxystrobin. Such donor solutions comprised Quadris®, a commercially available fungicide from Syngenta Crop Protection comprising azoxystrobin. Such donor solutions comprised 343.5 ppm azoxystrobin. […] In this example, the adjuvants tested were non-ionic surfactants comprising C11 linear alcohol ethoxylates (available from Stepan Company of Northfield, IL as Biosoft® N1-5, Biosoft® N1-7, and Biosoft® N1-9).
as §4

Data set [9] shares this test system. Nature of the data set: Franz cell leaf penetration of trans-2-Hexenoic acid, Mero (Example 15). To be noted: penetration ratio of trans-2-Hexenoic acid (1,500 ppm), azoxystrobin 343.5 ppm (Quadris) and Mero 31.3 ppm where included, 24 hours. The procedure: as §1
Each donor solution comprised 1,500 ppm trans-2-Hexenoic acid. Certain donor solutions included a strobilurin fungicide, namely azoxystrobin. Such donor solutions comprised Quadris®, a commercially available fungicide from Syngenta Crop Protection comprising azoxystrobin. Such donor solutions comprised 343.5 ppm azoxystrobin.
as §4

Data on seven compounds can be found in US20240397940A1, “COMPOSITIONS COMPRISING A SATURATED OR UNSATURATED ALIPHATIC ACID AND A NON-IONIC SURFACTANT FOR ENHANCING PENETRATION OF PESTICIDE COMPONENT” (TERRAMERA, INC., priority 2021, published 2024).

For `Fc1ccc([C@]2(Cn3cncn3)O[C@H]2c2ccccc2Cl)cc1` (racemic) [Epoxiconazole, epoxiconazole], the “Pesticidal Active Ingredient Penetration” value in data set [1] is 18.2%.
With `CCCCCC=CCC(=O)O` [3-Nonenoic acid], the “Aliphatic Acid Penetration” value in data set [2] worked out at 17.6%.
For the compound `CCCCC=CCC(=O)O` [3-octenoic acid, 3-Octenoic acid], in [3], the “Aliphatic Acid Penetration” value worked out at 13.4%.
In the case of `C=CCCCC(=O)O` [5-Hexenoic acid], in data set [4], the “Aliphatic Acid Penetration” value was 6.8%.
For `CO/C=C(/C(=O)OC)c1ccccc1Oc1cc(Oc2ccccc2C#N)ncn1` [Azoxystrobin, azoxystrobin], the “Pesticidal Active Ingredient Penetration” value in [5] was 0.7%.
`COC(=O)N(OC)c1ccccc1COc1ccn(-c2ccc(Cl)cc2)n1` [Pyraclostrobin, pyraclostrobin]: the “Pesticidal Active Ingredient Penetration” value amounted to 7.5% in data set [6] and 7.1% in data set [7].
Consider `CCC/C=C/C(=O)O` [trans-2-hexenoic acid, trans-2-Hexenoic acid], for which the “Aliphatic Acid Penetration” value in data set [8] and in data set [9] was 13.2% each time.
